Values of other authors in patent US20120149888A1, “SYNTHESIS OF ARA-2'-O-METHYL-NUCLEOSIDES, CORRESPONDING PHOSPHORAMIDITES AND OLIGONUCLEOTIDES INCORPORATING NOVEL MODIFICATIONS FOR BIOLOGICAL APPLICATION IN THERAPEUCTICS, DIAGNOSTICS, G- TETRAD FORMING OLIGONUCLEOTIDES AND APTAMERS” (priority 2009, published 2012).
Where two headings read alike, the source gives them in different places.

Columns and labels:
Ehrlich ascites (ETGR11) = conditions: Thioguanine-resistant Ehrlich ascites (ETGR11)
Ehrlich ascites (EAC-R2) = conditions: 6-Methyl thiopurine ribonucleoside-resistant Ehrlich ascites (EAC-R2)
[1] = tested on: explants of intact rat colonic mucosa
[2] = tested on: ara-C-resistant neoplasms; conditions: several other ara-C-resistant neoplasms
[3] = tested on: equilibrative NBMPR-sensitive nucleoside transporter (es); conditions: growth-inhibitory concentrations
L1210/ara-C = L1210/ara-C (Schabel et al., 1971)
P815 = conditions: 1β-D-Arabinofuranosylcytosine-resistant P815
L1210/CA = conditions: 1β-D-Arabinofuranosylcytosine-resistant L1210/CA
L1210/MP = conditions: 6-Mercaptopurine-resistant L1210/MP

Sc1ncnc2nc[nH]c12 [6-Mercaptopurine]
Response to chemotherapeutic drugs: Cross-resistant (Ehrlich ascites (ETGR11)): 6-Mercaptopurine
Response to chemotherapeutic drugs: Cross-resistant (Ehrlich ascites (EAC-R2)): 6-Mercaptopurine^b
Response to chemotherapeutic drugs: Cross-resistant (Ehrlich ascites (EAC-R2); listed as 6-MP): partially cross-resistant

NC(=O)NO [hydroxyurea]
incorporation of tritiated TdR into DNA [1]: reduced
cross-resistance of ara-C-resistant neoplasms to the drug [2]: no cross-resistance
expression of es [3]: increases
Response to chemotherapeutic drugs: Same as parent line (L1210/ara-C): Hydroxyurea
Response to chemotherapeutic drugs: Same as parent line (P815): Hudroxyurea
Response to chemotherapeutic drugs: Same as parent line (L1210/CA): Hydroxyurea

CN(C)/N=N/c1[nH]cnc1C(N)=O [DIC]
Response to chemotherapeutic drugs: Same as parent line (L1210/MP): DIC
